Experimental data taken from ChEMBL document CHEMBL1201862, “PubChem BioAssay data set” (2004).
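These data come from cells grown in 96-well plates and exposed to compound for 48 hours at five concentrations. At the GI50, growth is halved.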 Calls of active or inactive are those of the source. Rule as the data show it: active = GI50 up to about 1.1 µM and inactive = higher.

Legend:
Assay in all cases: NCI anticancer screen, dose series, 48 h
SF-295 = system: SF-295
SR = system: SR
SK-MEL-28 = system: SK-MEL-28
NCI/ADR-RES = system: NCI/ADR-RES
UACC-257 = system: UACC-257
CAKI-1 = system: CAKI-1
MDA-N = system: MDA-N
PC-3 = system: PC-3
HL-60 = system: HL-60
OVCAR-4 = system: OVCAR-4
A549 = system: A549
K562 = system: K562
NCI-H23 = system: NCI-H23
EKVX = system: EKVX
LOX IMVI = system: LOX IMVI
NCI-H522 = system: NCI-H522
RXF 393 = system: RXF 393
SF-539 = system: SF-539
Hs-578T = system: Hs-578T

Measured: GI50

COc1ccc(C(CC(=O)c2ccccc2)C(=O)c2ccc3c(c2)OCO3)cc1 (stereo not given)
inactive: SF-295 > 100 µM | SR > 100 µM | SK-MEL-28 > 100 µM | NCI/ADR-RES > 100 µM | UACC-257 > 100 µM | CAKI-1 > 100 µM | MDA-N > 100 µM | PC-3 > 100 µM | HL-60 > 100 µM | OVCAR-4 > 10 µM | A549 > 100 µM | K562 > 100 µM | NCI-H23 > 100 µM | EKVX > 100 µM

COC(=O)C1=C(O)C(C(=O)OC)[C@]2(O)[C@@H](C(=O)OC)[C@H]1[C@H](C)[C@@H](c1ccccc1)[C@@H]2C(=O)OC (stereo not given in full)
inactive: SF-295 78.2 µM | LOX IMVI 53.7 µM | NCI-H522 18.9 µM | SK-MEL-28 > 100 µM | NCI/ADR-RES 40.7 µM | UACC-257 > 100 µM | CAKI-1 > 100 µM | MDA-N 29.2 µM | PC-3 61.5 µM | HL-60 26.4 µM | RXF 393 > 100 µM | OVCAR-4 80 µM | A549 56.4 µM | K562 57.4 µM | SF-539 > 100 µM | NCI-H23 44.4 µM | EKVX 55.7 µM

Cc1ccc(-n2c(C)n[nH]c2=O)cc1
inactive: SF-295 > 100 µM | LOX IMVI > 100 µM | SR > 100 µM | NCI-H522 > 100 µM | SK-MEL-28 > 100 µM | NCI/ADR-RES > 100 µM | UACC-257 > 100 µM | MDA-N > 100 µM | PC-3 > 100 µM | RXF 393 > 100 µM | A549 > 100 µM | K562 > 100 µM | SF-539 > 100 µM | NCI-H23 > 100 µM | EKVX > 100 µM

O=c1c2cc(Br)ccc2oc2ccc(Br)cc12
inactive: SF-295 > 100 µM | NCI-H522 > 100 µM | SK-MEL-28 > 100 µM | NCI/ADR-RES > 100 µM | UACC-257 > 100 µM | CAKI-1 > 100 µM | MDA-N > 100 µM | PC-3 > 100 µM | HL-60 > 100 µM | RXF 393 > 100 µM | OVCAR-4 46.3 µM | A549 > 100 µM | K562 > 100 µM | SF-539 > 100 µM | NCI-H23 > 100 µM

O=C(NCCCN(CCCCN(CCCNC(=O)C(F)(F)F)CCCc1ccccc1)CCCc1ccccc1)C(F)(F)F
inactive: SF-295 1.81 µM | LOX IMVI 1.85 µM | NCI-H522 1.78 µM | SK-MEL-28 1.64 µM | NCI/ADR-RES 3.45 µM | UACC-257 1.71 µM | CAKI-1 1.94 µM | MDA-N 1.65 µM | HL-60 2.93 µM | RXF 393 1.3 µM | OVCAR-4 5.78 µM | A549 1.82 µM | K562 2.87 µM | SF-539 1.57 µM | NCI-H23 12.7 µM | EKVX 1.68 µM | Hs-578T 2.02 µM

Brc1ccc(/N=N/N2CCCC2)cc1
inactive: SF-295 77.1 µM | LOX IMVI 40.4 µM | SR 34.6 µM | NCI-H522 27.4 µM | SK-MEL-28 > 100 µM | UACC-257 93.8 µM | CAKI-1 27.7 µM | MDA-N 64.9 µM | PC-3 31.8 µM | HL-60 38.8 µM | RXF 393 81.7 µM | OVCAR-4 > 100 µM | A549 74.1 µM | K562 60 µM | SF-539 > 100 µM | NCI-H23 45.2 µM | EKVX 66.7 µM | Hs-578T > 100 µM

COc1c2occc2cc2ccc(=O)oc12 [METHOXSALEN]
inactive: SF-295 > 100 µM | LOX IMVI > 100 µM | SR 90.6 µM | SK-MEL-28 > 100 µM | UACC-257 > 100 µM | CAKI-1 > 100 µM | MDA-N > 100 µM | PC-3 > 100 µM | HL-60 90.2 µM | OVCAR-4 > 100 µM | A549 > 100 µM | K562 > 100 µM | SF-539 > 100 µM | NCI-H23 > 100 µM
